Source: patent US20260207604A1, “COMPOUND AND USE THEREOF” (ONQUALITY PHARMACEUTICALS CHINA LTD., priority 2022, published 2026)

Assay: Single-dose intravenous and oral pharmacokinetic study in rats
Format: in vivo, Sprague-Dawley (SD) rats
Settings: male SD rats
Protocol: Six male Sprague-Dawley (SD) rats were randomly divided into two groups, with three rats in each group. Compound 1 was administered either by intravenous injection at a dose of 2 mg/kg or by oral gavage at a dose of 10 mg/kg. The dosing volumes were 5 mL/kg for intravenous administration and 10 mL/kg for oral administration, with purified water used as the solvent. For the intravenous group, blood samples were collected at 0.083, 0.25, 0.5, 1, 2, 4, 6, 8, and 24 hours post-dose. For the oral group, blood samples were collected at 0.25, 0.5, 1, 2, 4, 6, 8, and 24 hours post-dose. Plasma samples were prepared by centrifugation and stored at −70° C. The plasma concentration of Compound 1 was determined using LC-MS/MS.

[1] = Sprague-Dawley, rat, IV 2 mg/kg, plasma

CC(=O)c1c(C)c2c(n(C3CCCC3)c1=O)=NC(Nc1ccc(N3CCN(S(=O)(=O)NCCN)CC3)cn1)NC=2 (centres unmarked) [Compound 1] showed an AUC(0-t) [1] of 602 ± 161 ng·h/mL, a clearance [1] of 56.7 ± 17.3 mL/min/kg and a half-life [1] of 5.55 ± 0.503 h. For the same molecule, the Vd (Sprague-Dawley, rat, IV 2 mg/kg, plasma, read-out: Vdss) was 9.61 ± 5.43 L/kg and the “plasma concentrations following oral administration” value (PO 10 mg/kg, all samples 0.25-24 h, below the lower limit of quantification) was less than 1 ng/mL.
